# Measurements from PubChem BioAssay (NCI).
#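 Exposure lasted 48 hours, with cells grown in 96-well plates and compounds tested at five concentrations. Abbreviation: GI50, concentration required for 50% inhibition of growth. Definition used: TGI = concentration required for complete inhibition of growth.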
# Tests used:
# Assay in all cases: DTP human tumour cell line panel, 48 h
# NCI-H23 lung = system: NCI-H23 lung
# UACC-62 melanoma = system: UACC-62 melanoma
# HCT-15 colon = system: HCT-15 colon
# NCI/ADR-RES ovarian = system: NCI/ADR-RES ovarian
# HOP-92 NSCLC = system: HOP-92 NSCLC
# HCT-116 colon = system: HCT-116 colon
# A498 renal = system: A498 renal
# SF-539 CNS = system: SF-539 CNS
# MDA-MB-231 breast = system: MDA-MB-231 breast
# SNB-75 CNS = system: SNB-75 CNS
# HS 578T breast = system: HS 578T breast
# HOP-62 NSCLC = system: HOP-62 NSCLC
# CAKI-1 renal = system: CAKI-1 renal
# OVCAR-3 ovarian = system: OVCAR-3 ovarian
# OVCAR-8 ovarian = system: OVCAR-8 ovarian
# SR leukemia = system: SR leukemia
# 786-0 renal = system: 786-0 renal
# SW-620 colon = system: SW-620 colon
# UACC-257 melanoma = system: UACC-257 melanoma
# MCF7 breast = system: MCF7 breast
# OVCAR-4 ovarian = system: OVCAR-4 ovarian
# SF-268 CNS = system: SF-268 CNS
# RXF 393 renal = system: RXF 393 renal
# PC-3 prostate = system: PC-3 prostate
# EKVX NSCLC = system: EKVX NSCLC
# SK-MEL-5 melanoma = system: SK-MEL-5 melanoma
# BT-549 breast = system: BT-549 breast
# COLO 205 colon = system: COLO 205 colon
# RPMI-8226 leukemia = system: RPMI-8226 leukemia
smiles,measurement,setting,value
CCCC(C)c1cc(Cc2cc(Cl)cc(Cl)c2O)c(O)c(Cc2cc(Cl)cc(Cl)c2O)c1 (configuration not stated),GI50,NCI-H23 lung,789 nM
same,TGI,NCI-H23 lung,9.64 µM
same,GI50,UACC-62 melanoma,629 nM
same,TGI,UACC-62 melanoma,4.2 µM
same,GI50,HCT-15 colon,336 nM
same,TGI,HCT-15 colon,2440 nM
same,GI50,NCI/ADR-RES ovarian,1660 nM
same,TGI,NCI/ADR-RES ovarian,11.2 µM
same,GI50,HOP-92 NSCLC,128 nM
same,TGI,HOP-92 NSCLC,496 nM
same,GI50,HCT-116 colon,384 nM
same,TGI,HCT-116 colon,3.97 µM
same,GI50,A498 renal,243 nM
same,TGI,A498 renal,2000 nM
same,GI50,SF-539 CNS,1090 nM
same,TGI,SF-539 CNS,7.28 µM
same,GI50,MDA-MB-231 breast,1240 nM
same,TGI,MDA-MB-231 breast,4.19 µM
same,GI50,SNB-75 CNS,1860 nM
same,TGI,SNB-75 CNS,7.7 µM
same,GI50,HS 578T breast,836 nM
same,TGI,HS 578T breast,8.32 µM
same,GI50,HOP-62 NSCLC,2700 nM
same,TGI,HOP-62 NSCLC,12 µM
same,GI50,CAKI-1 renal,1230 nM
same,TGI,CAKI-1 renal,10.4 µM
same,GI50,OVCAR-3 ovarian,1710 nM
same,TGI,OVCAR-3 ovarian,12.7 µM
same,GI50,OVCAR-8 ovarian,737 nM
same,TGI,OVCAR-8 ovarian,14.6 µM
same,GI50,SR leukemia,249 nM
same,TGI,SR leukemia,11 µM
same,GI50,786-0 renal,1640 nM
same,TGI,786-0 renal,6.78 µM
same,GI50,SW-620 colon,1610 nM
same,TGI,SW-620 colon,12.7 µM
same,GI50,UACC-257 melanoma,1840 nM
same,TGI,UACC-257 melanoma,6.1 µM
same,GI50,MCF7 breast,798 nM
same,TGI,MCF7 breast,10.2 µM
same,GI50,OVCAR-4 ovarian,2020 nM
same,TGI,OVCAR-4 ovarian,13.7 µM
same,GI50,SF-268 CNS,1010 nM
same,TGI,SF-268 CNS,20.7 µM
same,GI50,RXF 393 renal,1340 nM
same,TGI,RXF 393 renal,8.27 µM
same,GI50,PC-3 prostate,430 nM
same,TGI,PC-3 prostate,4.52 µM
same,GI50,EKVX NSCLC,1960 nM
same,TGI,EKVX NSCLC,11 µM
same,GI50,SK-MEL-5 melanoma,428 nM
same,TGI,SK-MEL-5 melanoma,2210 nM
same,GI50,BT-549 breast,1330 nM
same,TGI,BT-549 breast,5.2 µM
same,GI50,COLO 205 colon,1610 nM
same,TGI,COLO 205 colon,5.7 µM
same,GI50,RPMI-8226 leukemia,363 nM
